Measurements: ChEMBL document CHEMBL1250455, “Further delineation of hydrophobic binding sites in dopamine D(2)/D(3) receptors for N-4 substituents on the piperazine ring of the hybrid template 5/7-{[2-(4-aryl-piperazin-1-yl)-ethyl]-propyl-amino}-5,6,7,8-tetrahydro-naphthalen-2-ol” (Bioorg Med Chem, 2010)

Key:
[1] = target: D(3) dopamine receptor (Rattus norvegicus, UniProt P19020); experiment: Displacement of [3H]spiperone from rat D3 receptor expressed in HEK293 cells; type: cell-based
[2] = target: D(2) dopamine receptor (Rattus norvegicus, UniProt P61169); experiment: Displacement of [3H]spiperone from rat D2 receptor expressed in HEK293 cells; type: cell-based
D(2) dopamine receptor (Rattus norvegicus, UniProt P61169), sequence (P61169 whole entry): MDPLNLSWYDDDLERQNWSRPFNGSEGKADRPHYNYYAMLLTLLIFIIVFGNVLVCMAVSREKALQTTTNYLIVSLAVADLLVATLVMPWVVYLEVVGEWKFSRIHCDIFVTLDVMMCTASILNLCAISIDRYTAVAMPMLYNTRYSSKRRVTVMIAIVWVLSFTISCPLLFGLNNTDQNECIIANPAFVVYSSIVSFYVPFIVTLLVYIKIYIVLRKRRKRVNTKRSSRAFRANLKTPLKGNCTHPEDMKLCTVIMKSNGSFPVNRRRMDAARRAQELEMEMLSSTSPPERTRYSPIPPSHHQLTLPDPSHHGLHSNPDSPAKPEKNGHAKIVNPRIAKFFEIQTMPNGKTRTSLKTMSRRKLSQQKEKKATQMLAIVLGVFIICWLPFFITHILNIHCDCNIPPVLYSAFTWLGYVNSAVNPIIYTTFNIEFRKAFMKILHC

[3] = species on record: Rattus norvegicus; experiment: Selectivity ratio for Ki for rat D2 receptor to Ki for rat D3 receptor
[4] = target: T1, D(2) dopamine receptor (Homo sapiens, UniProt P14416); experiment: Agonist activity at human dopamine D2 receptor expressed in CHO cells assessed as stimulation of [35S]GTPgammaS binding relative to dopamine; type: functional, cell-based
T1 sequence (P14416 whole entry): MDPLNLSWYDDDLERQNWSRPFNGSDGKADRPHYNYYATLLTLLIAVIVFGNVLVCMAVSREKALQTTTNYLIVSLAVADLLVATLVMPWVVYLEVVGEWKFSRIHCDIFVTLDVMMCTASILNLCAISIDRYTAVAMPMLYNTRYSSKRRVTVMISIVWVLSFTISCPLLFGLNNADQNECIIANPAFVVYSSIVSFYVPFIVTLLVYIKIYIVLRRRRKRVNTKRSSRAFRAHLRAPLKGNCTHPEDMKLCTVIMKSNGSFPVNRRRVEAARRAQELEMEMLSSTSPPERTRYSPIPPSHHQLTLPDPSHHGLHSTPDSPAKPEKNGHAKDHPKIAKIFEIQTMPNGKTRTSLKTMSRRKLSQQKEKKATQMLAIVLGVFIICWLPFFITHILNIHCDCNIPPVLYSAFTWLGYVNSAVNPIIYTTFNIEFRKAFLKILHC

[5] = target: D(3) dopamine receptor (Homo sapiens, UniProt P35462); experiment: Agonist activity at human dopamine D3 receptor expressed in CHO cells assessed as stimulation of [35S]GTPgammaS binding; type: functional, cell-based
D(3) dopamine receptor (Homo sapiens, UniProt P35462), sequence (P35462 whole entry): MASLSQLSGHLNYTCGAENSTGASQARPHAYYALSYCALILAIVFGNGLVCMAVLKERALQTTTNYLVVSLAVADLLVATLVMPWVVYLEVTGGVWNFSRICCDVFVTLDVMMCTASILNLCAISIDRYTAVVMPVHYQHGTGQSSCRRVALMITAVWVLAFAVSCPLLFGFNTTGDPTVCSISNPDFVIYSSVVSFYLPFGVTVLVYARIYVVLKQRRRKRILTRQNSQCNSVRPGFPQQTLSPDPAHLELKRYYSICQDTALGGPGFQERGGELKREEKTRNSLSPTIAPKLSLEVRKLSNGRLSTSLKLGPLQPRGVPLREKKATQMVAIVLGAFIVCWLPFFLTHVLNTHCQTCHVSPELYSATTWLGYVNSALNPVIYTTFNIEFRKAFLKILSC

[6] = target: T1, D(2) dopamine receptor; experiment: Agonist activity at human dopamine D2 receptor expressed in CHO cells assessed as stimulation of [35S]GTPgammaS binding; type: functional, cell-based
[7] = species on record: Homo sapiens; experiment: Selectivity ratio of EC50 for human dopamine D2 receptor to EC50 for human dopamine D3 receptor

D(3) dopamine receptor (Rattus norvegicus, UniProt P19020), sequence (P19020 whole entry): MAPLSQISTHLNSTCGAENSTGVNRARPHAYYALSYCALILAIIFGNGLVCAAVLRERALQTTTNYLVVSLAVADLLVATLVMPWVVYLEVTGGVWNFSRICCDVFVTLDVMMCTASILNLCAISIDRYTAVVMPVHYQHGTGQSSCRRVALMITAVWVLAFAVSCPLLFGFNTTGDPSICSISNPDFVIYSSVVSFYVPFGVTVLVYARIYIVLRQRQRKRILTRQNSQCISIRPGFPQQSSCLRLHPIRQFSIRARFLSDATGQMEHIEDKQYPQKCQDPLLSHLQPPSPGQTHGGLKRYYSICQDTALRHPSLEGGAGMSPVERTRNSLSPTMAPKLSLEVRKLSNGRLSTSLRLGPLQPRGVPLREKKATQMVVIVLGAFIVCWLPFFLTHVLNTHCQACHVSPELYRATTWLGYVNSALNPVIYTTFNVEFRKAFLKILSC

SMILES	Ki [1]	Ki [2]	Ratio Ki [3]	Emax [4]	EC50 [5]	EC50 [6]	Ratio EC50 [7]
CCCN(CCN1CCN(c2ccccn2)CC1)C1CCc2ccc(O)cc2C1 (configuration not stated)	1.96 nM	103 nM	52.6				
CCCN(CCN1CCN(c2ccc(I)cc2)CC1)C1CCc2ccc(O)cc2C1 (configuration not stated)	7.66 nM	46.4 nM	6.06				
NCCc1ccc(O)c(O)c1				100%			
CCCN(CCN1CCN(c2ccc(-c3cccnc3)cc2)CC1)C1CCc2ccc(O)cc2C1 (racemic)	3.01 nM	59.1 nM	19.6				
CCCN(CCN1CCN(c2ccc(-c3ccccc3)cc2)CC1)C1CCc2ccc(O)cc2C1 (stereo in doubt; 8a)	5.22 nM	64.1 nM					
CCCN(CCN1CCN(c2ccc(-c3ccncc3)cc2)CC1)C1CCc2ccc(O)cc2C1 (stereo in doubt; 22d) [listing 1 of 2 here]		24.7 nM					
CCCN(CCN1CCN(c2ccc(-c3ccncc3)cc2)CC1)C1CCc2ccc(O)cc2C1 (stereo in doubt; 22d) [listing 2 of 2 here]			32				
CCCN(CCN1CCN(c2ccc(-c3ccccc3)cc2)CC1)C1CCc2ccc(O)cc2C1 (stereo in doubt; (+)-8a) [listing 1 of 2 here]	2.79 nM	58 nM			1.03 nM	108 nM	
CCCN(CCN1CCN(c2ccc(-c3ccccc3)cc2)CC1)C1CCc2ccc(O)cc2C1 (stereo in doubt; (+)-8a) [listing 2 of 2 here]			20.8	42.1%			105
CCCN(CCC)CCc1cccc2c1CC(=O)N2 [ROPINIROLE]		2670 nM		83.9%			

More lines, now with the values ahead:

Ki [1]	Ki [2]	Ratio Ki [3]	Emax [4]	EC50 [5]	EC50 [6]	Ratio EC50 [7]	SMILES
6.84 nM	165 nM	24.1					CCCN(CCN1CCN(c2ncccn2)CC1)C1CCc2ccc(O)cc2C1 (configuration not stated)
2.89 nM	21.7 nM	7.51					CCCN(CCN1CCN(c2cccnc2)CC1)C1CCc2ccc(O)cc2C1 (configuration not stated)
14.1 nM	68.3 nM	4.84					CCCN(CCN1CCN(c2ccncc2)CC1)C1CCc2ccc(O)cc2C1 (configuration not stated)
		121					CCCN(CCN1CCN(c2nccc3ccccc23)CC1)[C@H]1CCc2nc(N)sc2C1
2.36 nM	53.6 nM	22.7	71.8%	0.25 nM	52.6 nM	202	CCCN(CCN1CCN(c2ccc(-c3ccccc3)cc2)CC1)C1CCc2c(O)cccc2C1 (single isomer, unassigned; (-))
1.53 nM							CCCN(CCN1CCN(c2ccc(-c3ccncc3)cc2)CC1)C1CCc2c(O)cccc2C1 (single isomer, unassigned; (-))
		24.6					CCCN(CCN1CCN(c2ccc(-c3ccncc3)cc2)CC1)C1CCc2ccc(O)cc2C1 (single isomer, unassigned; (-))
